Measurements reported in patent US9458133B2, “Isoquinolines as potassium ion channel inhibitors” (BRISTOL-MYERS SQUIBB COMPANY, priority 2013, dated 2016).

Target: T1, human Kv 1.5 (Homo sapiens, UniProt P22460)
T1 construct: expressed in transfected cells; host or cells: mouse L-929 fibroblasts stably expressing human Kv1.5
Experiment: Block of IKur current in patch clamped L-929 cells stably expressing human Kv1.5
Format: cell-based
Settings: L929, 0.3 μM; patch clamped mammalian L-929 cells expressing human Kv1.5 (IKur); read-out: KV1_5% Inh L929 @0.3 μM
Excerpt: Synders, D. J. et al., “A rapidly activating and slowly inactivating potassium channel cloned from human heart: functional analysis after stable mammalian cell culture expression”, J. Gen. Physiol., 101:513-543 (1993). […]

T1 sequence (P22460 whole entry): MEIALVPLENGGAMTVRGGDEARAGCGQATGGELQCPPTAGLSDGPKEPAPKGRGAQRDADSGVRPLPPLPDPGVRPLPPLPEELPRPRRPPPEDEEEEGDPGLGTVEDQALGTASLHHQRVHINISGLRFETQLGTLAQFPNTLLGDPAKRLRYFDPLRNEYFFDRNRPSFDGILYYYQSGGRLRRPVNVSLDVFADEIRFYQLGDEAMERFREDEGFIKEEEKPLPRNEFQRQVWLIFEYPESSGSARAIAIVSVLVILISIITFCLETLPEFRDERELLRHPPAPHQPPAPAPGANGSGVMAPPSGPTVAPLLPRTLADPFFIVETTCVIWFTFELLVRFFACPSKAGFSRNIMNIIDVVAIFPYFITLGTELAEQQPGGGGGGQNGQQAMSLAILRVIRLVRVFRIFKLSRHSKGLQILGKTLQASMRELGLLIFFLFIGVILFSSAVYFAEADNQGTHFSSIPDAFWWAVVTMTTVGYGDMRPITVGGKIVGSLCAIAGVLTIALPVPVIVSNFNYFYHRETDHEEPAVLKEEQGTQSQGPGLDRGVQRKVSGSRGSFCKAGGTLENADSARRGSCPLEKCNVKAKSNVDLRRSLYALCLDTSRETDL

| inhibition at 0.3 µM [%] | SMILES |
| --- | --- |
| 53.2 | CS(=O)(=O)Nc1ccc(-c2cc3cccc(-c4ccccc4)c3c(NCc3ccccn3)n2)cn1 [Example 63, N-(5-(8-phenyl-1-(pyridin-2-ylmethylamino)isoquinolin-3-yl)pyridin-2-yl)methanesulfonamide] |
| 95.7 | CS(=O)(=O)Nc1cccc(-c2c(Cl)nc(NCc3ccccn3)c3c(-c4ccccc4)cccc23)c1 [Example 70, N-(3-(3-chloro-8-phenyl-1-(pyridin-2-ylmethylamino)isoquinolin-4-yl)phenyl)methanesulfonamide] |
| 89.7 | N#Cc1ccc(-c2c(Cl)nc(NCc3ccccn3)c3c(-c4ccccc4)cccc23)cc1 [Example 56, 4-(3-chloro-8-phenyl-1-(pyridin-2-ylmethylamino)isoquinolin-4-yl)benzonitrile] |
| 73.4 | NS(=O)(=O)c1ccc(-c2cc3cccc(-c4ccccc4)c3c(NCc3ccccn3)n2)cc1 [Example 33, 4-(8-phenyl-1-(pyridin-2-ylmethylamino)isoquinolin-3-yl)benzenesulfonamide] |
| 95.6 | COc1cc(-c2c(Cl)nc(NCc3ccccn3)c3c(-c4ccccc4)cccc23)ccn1 [Example 62, 3-chloro-4-(2-methoxypyridin-4-yl)-8-phenyl-N-(pyridin-2-ylmethyl)isoquinolin-1-amine] |
| 98.9 | NS(=O)(=O)c1cncc(-c2cnc(NCc3ccccn3)c3c(-c4ccccc4)cccc23)c1 [Example 11, 5-(8-Phenyl-1-(pyridin-2-ylmethylamino)isoquinolin-4-yl)pyridine-3-sulfonamide] |
| 95.1 | NS(=O)(=O)c1cncc(-c2cc3cccc(-c4ccccc4)c3c(NCc3ccccn3)n2)c1 [Example 1, 5-(8-Phenyl-1-(pyridin-2-ylmethylamino)isoquinolin-3-yl)pyridine-3-sulfonamide] |

The next lines start with the molecule.

| SMILES | inhibition at 0.3 µM [%] |
| --- | --- |
| NS(=O)(=O)c1cncc(-c2cnc(NCC3CCCCO3)c3c(-c4ccccc4)cccc23)c1 (stereo not shown) [Example 82, 5-(8-phenyl-1-((tetrahydro-2H-pyran-2-yl)methylamino)isoquinolin-4-yl)pyridine-3-sulfonamide] | 85 |
| CC(C)CCNc1nc(-c2cncc(S(N)(=O)=O)c2)cc2cccc(-c3ccccc3)c12 [Example 25, 5-(1-(isopentylamino)-8-phenylisoquinolin-3-yl)pyridine-3-sulfonamide] | 53.2 |
| NS(=O)(=O)Nc1ccccc1-c1cc2cccc(-c3ccccc3)c2c(NCc2ccccn2)n1 [Example 51] | 86.3 |
| NS(=O)(=O)c1cncc(-c2cc3cccc(-c4ccccc4)c3c(NCCOc3ccccc3)n2)c1 [Example 52, 5-(1-(2-phenoxyethylamino)-8-phenylisoquinolin-3-yl)pyridine-3-sulfonamide] | 55.8 |
| NC(=O)c1nc(NCc2ccccc2)c2c(-c3ccccc3)cccc2c1-c1cncc(S(N)(=O)=O)c1 [Example 17, 1-(Benzylamino)-8-phenyl-4-(5-sulfamoylpyridin-3-yl)isoquinoline-3-carboxamide] | 93.5 |
| Cc1ccccc1CNc1nc(-c2cncc(S(N)(=O)=O)c2)cc2cccc(-c3ccccc3)c12 [Example 45, 5-(1-(2-methylbenzylamino)-8-phenylisoquinolin-3-yl)pyridine-3-sulfonamide] | 78.5 |
| NS(=O)(=O)c1cncc(-c2cc3cccc(-c4ccccc4)c3c(N[C@H]3CCC[C@@H]3OCc3ccccc3)n2)c1 [Example 73, 5-(1-((1S,2S)-2-(benzyloxy)cyclopentylamino)-8-phenylisoquinolin-3-yl)pyridine-3-sulfonamide] | 56.3 |
| CC(C)CNc1nc(-c2cncc(S(N)(=O)=O)c2)cc2cccc(-c3ccccc3)c12 [Example 24, 5-(1-(isobutylamino)-8-phenylisoquinolin-3-yl)pyridine-3-sulfonamide] | 41.5 |
| NS(=O)(=O)c1cncc(-c2cc3cccc(-c4ccccc4)c3c(NCc3cccc(Cl)c3Cl)n2)c1 [Example 43, 5-(1-(2,3-dichlorobenzylamino)-8-phenylisoquinolin-3-yl)pyridine-3-sulfonamide] | 16.3 |
